The NIST ThermoML archive (doi:10.1021/je8001255)

Assay: an = ratio of the nth substance listed, in mol/kg
Settings: 100 kPa, Liquid; for electrical conductivity: Alternating current cell with electrodes

O=S(=O)([O-])[O-].[Co+2] [cobalt(II) sulfate] + O
Settings	electrical conductivity, 278.15 K [S/m]	electrical conductivity, 283.15 K [S/m]	electrical conductivity, 288.15 K [S/m]	electrical conductivity, 293.15 K [S/m]	electrical conductivity, 298.15 K [S/m]	electrical conductivity, 303.15 K [S/m]	electrical conductivity, 308.15 K [S/m]	mass density, 298.15 K [kg/m3]
a1 = 0.00551	0.0574	0.066	0.0749	0.084	0.0933	0.103	0.112	997.94
a1 = 0.02535	0.2	0.229	0.26	0.291	0.322	0.354	0.385	1001.16
a1 = 0.05135	0.338	0.388	0.439	0.491	0.544	0.597	0.649	1005.36
a1 = 0.1014	0.58	0.665	0.752	0.841	0.93	1.02	1.11	1013.44
a1 = 0.2522	1.19	1.36	1.54	1.72	1.9	2.09	2.27	1038.18
a1 = 0.4949	1.97	2.25	2.55	2.86	3.16	3.47	3.78	1079.59
a1 = 0.7706	2.63	3.03	3.43	3.85	4.27	4.7	5.12	1129.58
a1 = 0.9827	2.99	3.44	3.91	4.39	4.89	5.39	5.89	1170.36
a1 = 1.151	3.17	3.66	4.17	4.7	5.23	5.78	6.33	1204.34
a1 = 1.257	3.23	3.73	4.26	4.81	5.37	5.94	6.52	1227.86
a1 = 1.519	3.19	3.71	4.26	4.84	5.43	6.04	6.66	1286.2
a1 = 1.719	3.03	3.59	4.17	4.76	5.37	6	6.65	1331.86
